For this experiment, the system named is KB. The experiment can be described thus: Cytotoxicity against human KB cells. The experiment is classed as functional, cell-based.

Broadly, the IC50 is the concentration at which inhibition is half-maximal. Consider `C/C(=C/C=C/[C@]1(C)CCCc2ccoc21)CCC[C@H](C)CC(=O)[C@@H](O)[C@H](C)Cl`, for which the IC50 was below 1 µg/mL.

Molecule `CC1=C(O)/C(=C/[C@@H](C)CCC/C(C)=C/C=C/[C@]2(C)CCCc3ccoc32)OC1=O` yielded an IC50 of at least 1 µg/mL. To `CC1=C(O)/C(=C/[C@@H](C)CCC/C(C)=C\C=C\[C@]2(C)CCCc3ccoc32)OC1=O` belongs at least 1 µg/mL; to `CCC(O)C(=O)C[C@@H](C)CCC/C(C)=C\C=C\[C@]1(C)CCCc2ccoc21` (stereo not given in full), below 1 µg/mL; to `C/C(=C/C=C/[C@]1(C)CCCc2ccoc21)CCC[C@H](C)CC(=O)[C@H](O)[C@H](C)Cl`, below 1 µg/mL.

(Values after ChEMBL document CHEMBL1148150, “New cytotoxic furanosesterterpenes from an Okinawan marine sponge, Ircinia sp” (J Nat Prod, 2003).)
